Test results: patent US9199946B2, “Pyrimidinone carboxamide inhibitors of endothelial lipase” (BRISTOL-MYERS SQUIBB COMPANY, priority 2012, dated 2015)
Read-outs that look alike come from different tables or passages of the source.

Biological target: T1, Endothelial lipase (EL) (Homo sapiens, UniProt Q9Y5X9)
T1 construct: HT-1080 cells, which were transformed by RAGE technology (Athersys) to overexpress endogenous EL; endogenous in cells; conditioned medium used as the enzyme source
T1 sequence (Q9Y5X9 21-500): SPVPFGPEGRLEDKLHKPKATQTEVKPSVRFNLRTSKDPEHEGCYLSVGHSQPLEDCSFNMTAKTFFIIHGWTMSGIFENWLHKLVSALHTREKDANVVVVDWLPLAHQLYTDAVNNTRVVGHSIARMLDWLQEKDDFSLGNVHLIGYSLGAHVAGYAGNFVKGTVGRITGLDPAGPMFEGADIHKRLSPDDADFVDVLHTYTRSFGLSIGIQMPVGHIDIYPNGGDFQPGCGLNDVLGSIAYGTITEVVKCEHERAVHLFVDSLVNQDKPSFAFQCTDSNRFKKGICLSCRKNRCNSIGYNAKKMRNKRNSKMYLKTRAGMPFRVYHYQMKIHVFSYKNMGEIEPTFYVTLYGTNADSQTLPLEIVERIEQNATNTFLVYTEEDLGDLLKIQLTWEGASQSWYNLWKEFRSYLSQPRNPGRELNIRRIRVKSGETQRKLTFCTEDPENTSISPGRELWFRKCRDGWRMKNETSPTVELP
Experiment: Endothelial lipase (EL) enzymatic assay with fluorescent substrate A10070 in DMPG vesicles
Format: biochemical
Outline: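 The enzyme source was conditioned medium from HT-1080 cells engineered to overexpress endogenous EL. It was preincubated with compound for 20 min at 37 °C in 50 mM HEPES pH 8.0, 50 mM NaCl, 1 mM CaCl2. Reactions started with DMPG vesicles carrying FRET substrate A10070 (mole fraction 0.05). The rate was taken from the linear slope of fluorescence (ex 488/em 530 nm) over 10 min.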

[1] = range observed in the EL assay, read-out: EL IC50 values
[2] = conditioned media from HT-1080 cells overexpressing endogenous EL, 20 min preincubation at 37° C., read-out: EL IC50

SMILES	IC50 [1]	IC50 [2]
Nc1c(C(=O)N[C@H]2CC[C@@H](c3ccccc3)CC2)n(-c2cc(F)cc(C(F)(F)F)c2)c(=O)[nH]c1=O [Example 203, 5-Amino-3-(3-fluoro-5-(trifluoromethyl)phenyl)-2,6-dioxo-N-(cis-4-phenylcyclohexyl)-1,2,3,6-tetrahydropyrimidine-4-carboxamide]	≤ 10 µM	6.22 µM
C[C@H](Nc1c(C(=O)N[C@H]2CC[C@@H](c3ccccc3)CC2)[nH]c(=O)[nH]c1=O)C1CCCCC1 [Example 232, 5-((S)-1-cyclohexylethylamino)-2,6-dioxo-N-(cis-phenylcyclohexyl)-1,2,3,6-tetrahydropyrimidine-4-carboxamide]	≤ 10 µM	–
Nc1c(C(=O)N[C@H]2CCc3ccc(OCc4ccccc4)cc32)[nH]c(=O)[nH]c1=O [Example 90, (S)-5-amino-N-(6-(benzyloxy)-2,3-dihydro-1H-inden-1-yl)-2,6-dioxo-1,2,3,6-tetrahydropyrimidine-4-carboxamide]	≤ 10 µM	–
Nc1c(C(=O)N[C@@H]2C[C@@H](c3ccccc3)c3ccccc32)[nH]c(=O)[nH]c1=O [Example 42, 5-amino-2,6-dioxo-N-((1R,3S)-3-phenyl-2,3-dihydro-1H-inden-1-yl)-1,2,3,6-tetrahydropyrimidine-4-carboxamide]	≤ 10 µM	–
O=C(N[C@@H]1CC[C@@H](C(=O)Nc2cnn(Cc3ccccc3)c2)C1)c1[nH]c(=O)[nH]c(=O)c1O [Example 295, N-((1R,3R)-3-(1-benzyl-1H-pyrazol-4-ylcarbamoyl)cyclopentyl)-5-hydroxy-2,6-dioxo-1,2,3,6-tetrahydropyrimidine-4-carboxamide]	≤ 10 µM	–
Nc1c(C(=O)N[C@H]2CC[C@@H](c3ccc(Cl)c(Cl)c3)C2)[nH]c(=O)[nH]c1=O [Example 67, 5-amino-N-((1S,3R)-3-(3,4-dichlorophenyl)cyclopentyl)-2,6-dioxo-1,2,3,6-tetrahydropyrimidine-4-carboxamide]	≤ 10 µM	–
O=C(N[C@H]1CC[C@@H](c2ccccc2)CC1)c1[nH]c(=O)n(CC(F)(F)F)c(=O)c1O [Example 243, 5-hydroxy-2,6-dioxo-N-(cis-4-phenylcyclohexyl)-1-(2,2,2-trifluoroethyl)-1,2,3,6-tetrahydropyrimidine-4-carboxamide]	≤ 10 µM	0.967 µM
O=C(N[C@H]1CC[C@@H](c2ccccc2)CC1)c1[nH]c(=O)[nH]c(=O)c1NCc1ccc(C(F)(F)F)cc1 [Example 220, 2,6-dioxo-N-(cis-4-phenylcyclohexyl)-5-(4-(trifluoromethyl)benzylamino)-1,2,3,6-tetrahydropyrimidine-4-carboxamide]	≤ 10 µM	–
Nc1c(C(=O)N[C@@H]2CCc3ccc(-c4ccccc4)cc32)[nH]c(=O)[nH]c1=O [Example 138, (R)-5-amino-2,6-dioxo-N-(6-phenyl-2,3-dihydro-1H-inden-1-yl)-1,2,3,6-tetrahydropyrimidine-4-carboxamide]	≤ 10 µM	1.72 µM
Nc1c(C(=O)N[C@@H]2CCCc3c(NC(=O)c4ccccc4)cccc32)[nH]c(=O)[nH]c1=O [Example 124, (R)-5-amino-N-(5-benzamido-1,2,3,4-tetrahydronaphthalen-1-yl)-2,6-dioxo-1,2,3,6-tetrahydropyrimidine-4-carboxamide]	≤ 10 µM	–
Nc1c(C(=O)N[C@@H]2CCc3cc(Oc4ccccc4)ccc32)[nH]c(=O)[nH]c1=O [Example 89, (R)-5-amino-2,6-dioxo-N-(5-phenoxy-2,3-dihydro-1H-inden-1-yl)-1,2,3,6-tetrahydropyrimidine-4-carboxamide]	≤ 10 µM	–
Nc1c(C(=O)N[C@@H]2CC[C@H](c3ccc(-c4cnn(CCN5CCOCC5)c4)cc3)C2)[nH]c(=O)[nH]c1=O [Example 164, 5-amino-N-((1R,3S)-3-(4-(1-(2-morpholinoethyl)-1H-pyrazol-4-yl)phenyl)cyclopentyl)-2,6-dioxo-1,2,3,6-tetrahydropyrimidine-4-carboxamide]	≤ 10 µM	0.788 µM

Second part, the compound after the results:

IC50 [1]	IC50 [2]	SMILES
≤ 10 µM	–	COc1cccc2c1CCCC2NC(=O)c1[nH]c(=O)[nH]c(=O)c1N (stereo not shown) [Example 47, 5-amino-N-(5-methoxy-1,2,3,4-tetrahydronaphthalen-1-yl)-2,6-dioxo 1,2,3,6-tetrahydropyrimidine-4-carboxamide]
≤ 10 µM	–	Nc1c(C(=O)NC2CCC(c3cccc(OCc4ccccc4)c3)C2)[nH]c(=O)[nH]c1=O (single isomer, unassigned) [Example 155, 5-amino-N-(3-(3-(benzyloxy)phenyl)cyclopentyl)-2,6-dioxo-1,2,3,6-tetrahydropyrimidine-4 carboxamide]
≤ 10 µM	0.875 µM	O=C(N[C@H]1CC[C@@H](NC(=O)c2[nH]c(=O)[nH]c(=O)c2O)CC1)OCc1ccccc1 [Example 281, benzyl cis-4-(5-hydroxy-2,6-dioxo-1,2,3,6-tetrahydropyrimidine-4-carboxamido)cyclohexylcarbamate]
≤ 10 µM	0.296 µM	O=C(N[C@H]1CC[C@@H](c2ccccc2)CC1)c1[nH]c(=O)[nH]c(=O)c1NCCc1ccc(Cl)cc1 [Example 218, 5-(4-chlorophenethylamino)-2,6-dioxo-N-(cis-4-phenylcyclohexyl)-1,2,3,6-tetrahydropyrimidine-4-carboxamide]
≤ 10 µM	0.291 µM	O=C(N[C@H]1CC[C@@H](c2ccccc2)CC1)c1[nH]c(=O)[nH]c(=O)c1NCCN1CCOCC1 [Example 211, 5-(2-morpholinoethylamino)-2,6-dioxo-N-(cis-4-phenylcyclohexyl)-1,2,3,6-tetrahydropyrimidine-4-carboxamide]
≤ 10 µM	–	O=C(N[C@H]1CC[C@@H](c2ccccc2)CC1)c1[nH]c(=O)[nH]c(=O)c1NCc1cc(F)cc(C(F)(F)F)c1 [Example 236, 5-(3-fluoro-5-(trifluoromethyl)benzylamino)-2,6-dioxo-N-((1s,4s)-4-phenylcyclohexyl)-1,2,3,6-tetrahydropyrimidine-4-carboxamide]
≤ 10 µM	–	O=C(N[C@H]1CC[C@@H](c2cccc(C(F)(F)F)c2)CC1)c1[nH]c(=O)[nH]c(=O)c1O [Example 257, 5-hydroxy-2,6-dioxo-N-((1s,4s)-4-(3-(trifluoromethyl)phenyl)cyclohexyl)-1,2,3,6-tetrahydropyrimidine-4-carboxamide]
≤ 10 µM	–	O=C(N[C@H]1CC[C@@H](c2ccccc2)CC1)c1[nH]c(=O)[nH]c(=O)c1NCc1ccncc1 [Example 227, 2,6-dioxo-N-(cis-4-phenylcyclohexyl)-5-(pyridin-4-ylmethylamino)-1,2,3,6-tetrahydropyrimidine-4-carboxamide]
≤ 10 µM	–	Nc1c(C(=O)N[C@H]2CC[C@@H](c3ccc(-c4ccc(CO)cc4)cc3)C2)[nH]c(=O)[nH]c1=O [Example 177, 5-amino-N-((1S,3R)-3-(4′-(hydroxymethyl)biphenyl-4-yl)cyclopentyl)-2,6-dioxo-1,2,3,6-tetrahydropyrimidine-4-carboxamide]
≤ 10 µM	–	O=C(N[C@H]1CC[C@@H](c2ccccc2)CC1)c1[nH]c(=O)[nH]c(=O)c1NCc1cccc(C(F)(F)F)c1 [Example 222, 2,6-dioxo-N-(cis-4-phenylcyclohexyl)-5-(3-(trifluoromethyl)benzylamino)-1,2,3,6-tetrahydropyrimidine-4-carboxamide]
≤ 10 µM	1.06 µM	CCOC(=O)N1CCC(NC(=O)c2[nH]c(=O)[nH]c(=O)c2N)c2ccccc21 (racemic) [Example 25, ethyl 4-(5-amino-2,6-dioxo-1,2,3,6-tetrahydropyrimidine-4-carboxamido)-3,4-dihydroqiiinoline-1(2H)-carboxylate]
≤ 10 µM	–	Nc1c(C(=O)N[C@H]2CCCc3c(OCc4ccccc4F)cccc32)[nH]c(=O)[nH]c1=O [Example 97, (S)-5-amino-N-(5-(2-fluorobenzyloxy)-1,2,3,4-tetrahydronaphthalen-1-yl)-2,6-dioxo-1,2,3,6-tetrahydropyrimidine-4-carboxamide]
≤ 10 µM	–	Nc1c(C(=O)N[C@@H]2CCN(c3ccccc3)C2)[nH]c(=O)[nH]c1=O [Example 191, (R)-5-amino-2,6-dioxo-N-(1-phenylpyrrolidin-3-yl)-1,2,3,6-tetrahydropyrimidine-4-carboxamide]
≤ 10 µM	0.028 µM	Nc1c(C(=O)N[C@H]2CCc3ccc(-c4ccccc4)cc32)[nH]c(=O)[nH]c1=O [Example 139, (S)-5-amino-2,6-dioxo-N-(6-phenyl-2,3-dihydro-1H-inden-1-yl)-1,2,3,6-tetrahydropyrimidine-4-carboxamide]
≤ 10 µM	–	O=C(N[C@H]1CC[C@@H](c2ccccc2)CC1)c1[nH]c(=O)[nH]c(=O)c1NCc1ccccc1CO [Example 212, 5-(2-(hydroxymethyl)benzylamino)-2,6-dioxo-N-(cis-4-phenylcyclohexyl)-1,2,3,6-tetrahydropyrimidine-4-carboxamide]
≤ 10 µM	–	Nc1c(C(=O)NC2CCC(c3cnn(Cc4ccccc4)c3)C2)[nH]c(=O)[nH]c1=O (single isomer, unassigned) [Example 131, 5-amino-N-(3-(1-benzyl-1H-pyrazol-4-yl)cyclopentyl)-2,6-dioxo-1,2,3,6-tetrahydropyrimidine-4-carboxamide]
